Measured values: PMC5187391, “Structural mechanism for the arginine sensing and regulation of CASTOR1 in the mTORC1 signaling pathway” (Cell Discovery, 2016)
Changes are numbered by the printed parent chain. Blank lines part the entries; values can stand above or below the molecule they belong to.

Tests used:
CASTOR1 [1] = target: T1, CASTOR1 (Homo sapiens, UniProt Q8WTX7, S111A); experiment: ITC; format: binding
T1 construct: full-length human CASTOR1, N-terminal 6×His-tag
T1 sequence (Q8WTX7 1-329 S111A): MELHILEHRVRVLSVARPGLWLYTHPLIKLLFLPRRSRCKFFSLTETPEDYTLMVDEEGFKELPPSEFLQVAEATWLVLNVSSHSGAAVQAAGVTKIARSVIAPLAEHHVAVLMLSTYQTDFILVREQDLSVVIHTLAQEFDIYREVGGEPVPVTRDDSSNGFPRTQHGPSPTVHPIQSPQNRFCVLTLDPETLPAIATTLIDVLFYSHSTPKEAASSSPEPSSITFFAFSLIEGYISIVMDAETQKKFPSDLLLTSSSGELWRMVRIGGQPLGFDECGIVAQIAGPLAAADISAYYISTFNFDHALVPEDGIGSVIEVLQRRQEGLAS

CASTOR1 [2] = target: T2, CASTOR1 (Homo sapiens, UniProt Q8WTX7); experiment: ITC; format: binding
T2 construct: full-length human CASTOR1, N-terminal 6×His-tag (homodimer)
T2 sequence (Q8WTX7 1-329): T1 sequence (Q8WTX7 1-329 S111A) with A111S

[3] = target: the molecule itself; experiment: SEC-MALS; 25 °C; about 400 μg protein injected per run; 15 mM Tris-HCl, pH 8.0, 150 mM NaCl, 2 mM DTT; WTC-015S5 column
[4] = target: T3, Full-length human Mios with an N-terminal GST tag (human, UniProt Q9NXC5 1-875); experiment: pull-down; Ni2+-NTA column pull-down: His-CASTOR1 pre-immobilised on the Ni2+-NTA column, GST-Mios (or another purified GATOR2 subunit) added at 4 °C; wash 25 mM Tris, pH 8.0, 300 mM NaCl, 20 mM imidazole; elution with 500 mM imidazole; SDS-PAGE and Coomassie Blue staining; details: both partners purified
T3 construct: Mios, human, full length, in pGEX4T-1; the methods describe only GST-Mios for the Ni2+-NTA pull-down; also called GST-Mios; purified Mios protein; not shown: GST, N-terminal, kept
T3 sequence (looked up): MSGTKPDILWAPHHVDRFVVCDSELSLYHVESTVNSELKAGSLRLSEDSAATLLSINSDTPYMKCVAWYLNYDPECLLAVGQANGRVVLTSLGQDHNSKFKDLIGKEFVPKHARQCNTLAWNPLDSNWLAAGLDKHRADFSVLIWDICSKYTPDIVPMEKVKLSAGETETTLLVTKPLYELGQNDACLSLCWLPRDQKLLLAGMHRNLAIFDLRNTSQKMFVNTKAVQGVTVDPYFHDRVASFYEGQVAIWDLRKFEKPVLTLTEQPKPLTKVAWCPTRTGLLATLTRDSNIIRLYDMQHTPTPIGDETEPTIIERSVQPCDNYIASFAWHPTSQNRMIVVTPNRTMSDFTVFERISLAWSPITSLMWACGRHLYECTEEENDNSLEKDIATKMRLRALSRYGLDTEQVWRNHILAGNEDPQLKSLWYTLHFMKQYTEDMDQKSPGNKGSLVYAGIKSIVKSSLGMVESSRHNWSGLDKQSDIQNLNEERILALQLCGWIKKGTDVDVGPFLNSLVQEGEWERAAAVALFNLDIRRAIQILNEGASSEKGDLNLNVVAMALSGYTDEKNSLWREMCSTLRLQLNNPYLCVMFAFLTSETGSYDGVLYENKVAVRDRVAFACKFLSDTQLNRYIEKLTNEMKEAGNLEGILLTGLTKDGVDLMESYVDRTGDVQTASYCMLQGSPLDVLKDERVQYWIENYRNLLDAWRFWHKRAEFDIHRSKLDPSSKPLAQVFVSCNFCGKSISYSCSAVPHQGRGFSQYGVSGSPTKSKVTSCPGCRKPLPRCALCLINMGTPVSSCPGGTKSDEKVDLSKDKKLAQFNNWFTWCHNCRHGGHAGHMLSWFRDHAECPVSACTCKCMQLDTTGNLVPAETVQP

Molecule: N=C(N)NCCC[C@H](N)C(=O)O [arginine]
Kd (CASTOR1 [1]): 9.68 µM
Kd (CASTOR1 [2]): 2.23 µM

binding result [4]: binds
B1: Full-length human CASTOR1, wild type, N-terminal 6xHis-tag (natural protein, UniProt Q8WTX7 1-329, looked up)
chain: T1 sequence (Q8WTX7 1-329 S111A) with A111S
notes: CASTOR1, human, full length (residues 1-329 by the domain limits printed in the results); cDNA chemically synthesized, in pET28a; Dimer in the crystal and by SEC-MALS; also called WT CASTOR1; His-CASTOR1; source: E. coli BL21(DE3), purified (Ni2+-NTA, Superdex 200 gel filtration); not shown: His6, N-terminal, kept
stoichiometry N [3]: 2
